This is an account of results in ChEMBL document CHEMBL4184193, “Design, synthesis, and opioid activity of arodyn analogs cyclized by ring-closing metathesis involving Tyr(allyl)” (Bioorg Med Chem, 2018).

The structures appear in SMILES notation. Where a SMILES comes first, the peptide text is derived from it. [ ]: non-standard residue; d: D form.

In assay [1] the target is Kappa-type opioid receptor (Rattus norvegicus) (UniProt P34975). In words: Antagonist activity at rat kappa opioid receptor expressed in CHO cell membranes assessed as inhibition of Dyn A-(1-13)NH2-induced [35S]GTPgammaS binding at 10 uM relative to control. The assay is classed as functional. Background: Binding of GTPγS marks nucleotide exchange on a G protein.
Sequence of Kappa-type opioid receptor (Rattus norvegicus) (P34975 whole entry): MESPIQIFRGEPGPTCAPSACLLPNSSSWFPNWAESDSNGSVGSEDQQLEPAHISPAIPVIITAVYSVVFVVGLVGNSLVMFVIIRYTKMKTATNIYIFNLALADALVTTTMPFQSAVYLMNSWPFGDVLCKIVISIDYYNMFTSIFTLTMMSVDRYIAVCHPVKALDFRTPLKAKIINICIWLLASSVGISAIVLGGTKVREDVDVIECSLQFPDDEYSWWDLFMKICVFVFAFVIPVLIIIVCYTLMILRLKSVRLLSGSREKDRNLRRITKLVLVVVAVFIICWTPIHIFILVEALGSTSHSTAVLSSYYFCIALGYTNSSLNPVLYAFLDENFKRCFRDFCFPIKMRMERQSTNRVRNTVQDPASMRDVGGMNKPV
Assay [2] shares this target. In words: Antagonist activity at rat kappa opioid receptor expressed in CHO cell membranes assessed as inhibition of Dyn A-(1-13)NH2-induced [35S]GTPgammaS binding by schild analysis. The assay is classed as functional.
In assay [3] the target is Delta-type opioid receptor (Rattus norvegicus, UniProt P33533). The assay can be described thus: Displacement of [3H]DPDPE from rat delta opioid receptor expressed in CHO cells after 90 mins by scintillation counting analysis. It is filed as cell-based. On the technique in general: In a radioligand displacement assay an active substance lowers the binding of a labelled ligand.
Sequence of Delta-type opioid receptor (P33533 whole entry): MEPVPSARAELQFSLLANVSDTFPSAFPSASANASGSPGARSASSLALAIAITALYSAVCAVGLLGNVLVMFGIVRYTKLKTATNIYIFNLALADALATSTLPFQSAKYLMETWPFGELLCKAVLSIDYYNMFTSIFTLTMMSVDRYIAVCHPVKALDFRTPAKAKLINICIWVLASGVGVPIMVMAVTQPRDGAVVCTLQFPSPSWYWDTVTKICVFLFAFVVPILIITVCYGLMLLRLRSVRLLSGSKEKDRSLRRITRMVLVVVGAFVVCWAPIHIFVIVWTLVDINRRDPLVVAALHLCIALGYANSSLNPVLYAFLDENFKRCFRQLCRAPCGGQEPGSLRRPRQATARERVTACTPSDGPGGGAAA

One may read the inhibition as how much of the control response was suppressed. For the compound `CC[C@H](C)[C@H](NC(=O)[C@H](CCCNC(=N)N)NC(=O)[C@@H]1C/C=C/COc2ccc(cc2)C[C@H](NC(=O)[C@H](Cc2ccccc2)NC(=O)[C@H](Cc2ccccc2)NC(C)=O)C(=O)N[C@@H](CCCNC(=N)N)C(=O)N1)C(=O)N[C@@H](CCCNC(=N)N)C(=O)N1CCC[C@H]1C(=O)N[C@@H](CCCCN)C(N)=O`, the inhibition in assay [1] was determined as 3.3%. The term Kb denotes the equilibrium dissociation constant of an antagonist, usually derived from a functional assay. `CC(=O)N[C@@H](Cc1ccccc1)C(=O)N[C@@H](Cc1ccccc1)C(=O)N[C@@H](Cc1ccccc1)C(=O)N[C@@H](CCCN=C(N)N)C(=O)N[C@@H](CC(C)C)C(=O)N[C@@H](CCCN=C(N)N)C(=O)N[C@@H](CCCN=C(N)N)C(=O)N[C@@H](C)C(=O)N[C@@H](CCCN=C(N)N)C(=O)N1CCC[C@H]1C(=O)N[C@@H](CCCCN)C(N)=O` (Ac-FFFRLRRARPK-NH2): in assay [2], the Kb worked out at 17 nM. As usually defined, the Ki is a dissociation constant, usually derived from enzyme kinetics or from competition with a known ligand. A lower Ki goes with tighter binding. Compound `CC(=O)N[C@@H](Cc1ccccc1)C(=O)N[C@@H](Cc1ccccc1)C(=O)N[C@@H](Cc1ccccc1)C(=O)N[C@@H](CCCNC(=N)N)C(=O)N[C@@H](CC(C)C)C(=O)N[C@@H](CCCNC(=N)N)C(=O)N[C@@H](CCCNC(=N)N)C(=O)N[C@H](C)C(=O)N[C@@H](CCCNC(=N)N)C(=O)N1CCC[C@H]1C(=O)N[C@@H](CCCCN)C(N)=O` (Ac-FFFRLRR[dA]RPK-NH2) yielded a Ki in assay [3] greater than 5000 nM.
